From patent US20120190666A1, “Heteroaryl Compounds as PIKK Inhibitors” (Amgen Inc., priority 2009, published 2012) come the findings set out here.

SMILES strings stand for the structures.

T1 sequence (P42336 whole entry): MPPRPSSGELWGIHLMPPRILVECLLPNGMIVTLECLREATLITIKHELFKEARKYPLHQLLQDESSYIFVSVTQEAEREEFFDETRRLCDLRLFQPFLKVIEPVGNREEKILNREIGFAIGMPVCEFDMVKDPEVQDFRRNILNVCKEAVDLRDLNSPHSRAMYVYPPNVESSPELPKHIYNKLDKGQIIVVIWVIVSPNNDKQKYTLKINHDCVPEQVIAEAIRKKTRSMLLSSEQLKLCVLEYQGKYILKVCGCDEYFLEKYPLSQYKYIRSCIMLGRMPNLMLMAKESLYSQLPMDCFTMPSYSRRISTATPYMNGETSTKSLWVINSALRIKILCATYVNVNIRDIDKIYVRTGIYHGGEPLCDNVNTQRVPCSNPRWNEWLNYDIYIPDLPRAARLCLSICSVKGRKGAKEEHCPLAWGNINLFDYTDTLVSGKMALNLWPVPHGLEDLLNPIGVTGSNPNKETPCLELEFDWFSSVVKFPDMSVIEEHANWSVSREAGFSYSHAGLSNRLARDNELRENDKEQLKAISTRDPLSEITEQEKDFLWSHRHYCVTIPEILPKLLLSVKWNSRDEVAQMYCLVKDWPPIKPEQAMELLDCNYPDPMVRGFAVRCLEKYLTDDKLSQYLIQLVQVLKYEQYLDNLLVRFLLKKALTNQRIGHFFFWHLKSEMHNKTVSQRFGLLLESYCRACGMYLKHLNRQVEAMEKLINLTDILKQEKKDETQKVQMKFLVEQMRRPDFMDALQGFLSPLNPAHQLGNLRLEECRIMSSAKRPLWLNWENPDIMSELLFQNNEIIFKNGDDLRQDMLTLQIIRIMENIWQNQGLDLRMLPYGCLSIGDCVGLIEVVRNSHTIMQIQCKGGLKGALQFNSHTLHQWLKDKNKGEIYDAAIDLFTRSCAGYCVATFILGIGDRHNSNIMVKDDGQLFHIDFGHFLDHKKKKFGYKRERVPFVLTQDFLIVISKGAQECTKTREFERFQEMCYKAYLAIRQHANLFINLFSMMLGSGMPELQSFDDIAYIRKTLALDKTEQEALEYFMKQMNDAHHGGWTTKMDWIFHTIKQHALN
T1 sequence (P27986 whole entry partner): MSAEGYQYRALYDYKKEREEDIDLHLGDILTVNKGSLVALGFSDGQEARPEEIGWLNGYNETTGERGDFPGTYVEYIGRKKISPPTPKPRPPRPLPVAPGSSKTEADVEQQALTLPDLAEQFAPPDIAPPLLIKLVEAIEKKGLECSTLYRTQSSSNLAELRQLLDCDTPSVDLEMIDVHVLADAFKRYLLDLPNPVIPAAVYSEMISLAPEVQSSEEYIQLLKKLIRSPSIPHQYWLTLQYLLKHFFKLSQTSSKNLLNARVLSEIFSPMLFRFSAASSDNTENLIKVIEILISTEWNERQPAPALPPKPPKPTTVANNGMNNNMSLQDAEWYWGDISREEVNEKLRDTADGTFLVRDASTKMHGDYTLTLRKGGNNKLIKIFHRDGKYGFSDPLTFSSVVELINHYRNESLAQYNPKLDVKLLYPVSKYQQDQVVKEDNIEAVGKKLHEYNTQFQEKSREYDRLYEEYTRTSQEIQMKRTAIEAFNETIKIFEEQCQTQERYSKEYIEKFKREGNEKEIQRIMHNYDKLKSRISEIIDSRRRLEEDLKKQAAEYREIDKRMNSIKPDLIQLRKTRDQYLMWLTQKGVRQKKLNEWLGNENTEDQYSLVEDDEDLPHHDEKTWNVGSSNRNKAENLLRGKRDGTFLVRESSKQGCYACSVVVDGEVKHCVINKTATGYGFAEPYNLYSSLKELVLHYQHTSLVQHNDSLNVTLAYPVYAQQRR

This assay addresses T1, PI3Kα (Homo sapiens, UniProt P42336).
T1 construct: Full length p110 subunits of PI3K α, β and δ, N-terminally labeled with polyHis tag; polyHis (N); made in house; host or cells: Sf9 insect cells (baculovirus)
Kind of assay: In vitro PI3K AlphaScreen assay, PI3Kα. The format is biochemical. The following applies: PI(4,5)P2 substrate, 20 minutes at room temperature, read-out: P13Kalpha IC50 um. Summed up:
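PI3Kα at 1.6 nM (2× stock) with PI(4,5)P2 10 μM and ATP 20 μM (2× stocks) in Tris pH 7, MgCl2, cholate, NaCl, DTT; 20 min at room temperature. Quenched with biotin-IP4/streptavidin-Donor beads, then GST-PIP3-binding protein/anti-GST Acceptor beads, 1.5 h dark; PIP3 formation read as loss of AlphaScreen signal.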
For orientation: IC50 means the concentration at which inhibition is half-maximal. As for `Cc1nc(NC(=O)N(C)C)cc(-c2c(Nc3cc[nH]n3)nc3cccnn23)n1` [Cpd 75, 1,1-dimethyl-3-(2-methyl-6-(2-(1H-pyrazol-3-ylamino)imidazo[1,2-b]pyridazin-3-yl)-4-pyrimidinyl)urea], the IC50 came out at 42.1 µM.
As for `Cc1nc(NC(=O)N2CCN(C)CC2)cc(-c2c(Nc3cc[nH]n3)nc3cccnn23)n1` [Cpd 77, 4-methyl-N-(2-methyl-6-(2-(1H-pyrazol-3-ylamino)imidazo[1,2-b]pyridazin-3-yl)-4-pyrimidinyl)-1-piperazinecarboxamide], the IC50 was determined as 15.3 µM.
For the molecule `Cc1nc(NCC#N)cc(-c2c(Nc3cc[nH]n3)nc3cccnn23)n1` [Cpd 90], the IC50 turned out to be 0.59 µM.
With `Cc1nc(NC(=O)CN(C)C)cc(-c2c(Nc3ccn(C)n3)nc3cccnn23)n1` [Cpd 92], the IC50 was found to be 20.1 µM.
Consider `Cc1nc(N)nc(-c2c(Nc3cc[nH]n3)nc3ccc(C4=CCN(C(=O)OC(C)(C)C)CC4)cn23)n1` [Cpd 97, tert-butyl 4-(3-(4-amino-6-methyl-1,3,5-triazin-2-yl)-2-(1H-pyrazol-3-ylamino)imidazo[1,2-a]pyridin-6-yl)-3,6-dihydro-1(2H)-pyridinecarboxylate], for which the IC50 came out at 0.35 µM.
On to `CNC(=O)c1ccc(-c2ccc3nc(Nc4cc[nH]n4)c(-c4nc(C)nc(N)n4)n3c2)cc1F` [Cpd 99, 4-(3-(4-amino-6-methyl-1,3,5-triazin-2-yl)-2-(1H-pyrazol-3-ylamino)imidazo[1,2-a]pyridin-6-yl)-2-fluoro-N-methylbenzamide], for which the IC50 stood at 0.11 µM.
As for `CC(=O)NCc1ccc(-c2ccc3nc(Nc4cc[nH]n4)c(-c4nc(C)nc(N)n4)n3c2)cc1` [Cpd 100, N-(4-(3-(4-amino-6-methyl-1,3,5-triazin-2-yl)-2-(1H-pyrazol-3-ylamino)imidazo[1,2-a]pyridin-6-yl)benzyl)acetamide], the figure is 0.42 µM.
With `Cc1nc(N)nc(-c2c(Nc3cc[nH]n3)nc3ccc(-c4ccoc4)cn23)n1` [Cpd 105, 3-(4-amino-6-methyl-1,3,5-triazin-2-yl)-6-(3-furanyl)-N-1H-pyrazol-3-ylimidazo[1,2-a]pyridin-2-amine] the figure was 0.04 µM; with `Cc1nc(N)nc(-c2c(Nc3cc[nH]n3)nc3ccc(-c4ccc(F)cc4C)cn23)n1` [Cpd 107, 3-(4-amino-6-methyl-1,3,5-triazin-2-yl)-6-(4-fluoro-2-methylphenyl)-N-1H-pyrazol-3-ylimidazo[1,2-a]pyridin-2-amine], 0.25 µM.
Consider `CSc1cccc(-c2ccc3nc(Nc4cc[nH]n4)c(-c4nc(C)nc(N)n4)n3c2)c1` [Cpd 109, 3-(4-amino-6-methyl-1,3,5-triazin-2-yl)-6-(3-(methylsulfanyl)phenyl)-N-1H-pyrazol-3-ylimidazo[1,2-a]pyridin-2-amine], for which the half-maximal inhibitory concentration (IC50) amounted to 0.47 µM.
With `CC(=O)Nc1cccc(-c2ccc3nc(Nc4cc[nH]n4)c(-c4nc(C)nc(N)n4)n3c2)c1` [Cpd 114, N-(3-(3-(4-amino-6-methyl-1,3,5-triazin-2-yl)-2-(1H-pyrazol-3-ylamino)imidazo[1,2-a]pyridin-6-yl)phenyl)acetamide] the figure was 0.1 µM; with `Cc1nc(N)nc(-c2c(Nc3cc[nH]n3)nc3ccc(-c4cccc(NC(=O)C5CC5)c4)cn23)n1` [Cpd 115, N-(3-(3-(4-amino-6-methyl-1,3,5-triazin-2-yl)-2-(1H-pyrazol-3-ylamino)imidazo[1,2-a]pyridin-6-yl)phenyl)cyclopropanecarboxamide], 0.04 µM.
Consider `Cc1nc(NC(=O)C2CC2)cc(-c2c(Nc3cc[nH]n3)nc3cccnn23)n1` [Cpd 120], for which the IC50 is 1 µM.
For `COCC(=O)Nc1cc(-c2c(Nc3ccn(C)n3)nc3cccnn23)nc(C)n1` [Cpd 123, 2-methoxy-N-(2-methyl-6-(2-((1-methyl-1H-pyrazol-3-yl)amino)imidazo[1,2-b]pyridazin-3-yl)-4-pyrimidinyl)acetamide], the IC50 came out at 6.93 µM.
